For data set [1], the system named is Plasmodium falciparum 3D7/MRA-102. Nature of the data set: In vitro antiplasmodial activity. The conditions noted are these: for IC50: chloroquine-sensitive strain 3D7/MRA-102, 48 h incubation, n = 3, read-out: Pf IC50 ± SD; for antiplasmodial activity in words: P. falciparum 3D7/MRA-102. Format: cell-based.
The test system of data set [2] is Mycobacterium tuberculosis H37Ra/ATCC 25177. Further details: method as in PMID 30087309, PMID 32916979. As to conditions: M. tuberculosis H37Ra/ATCC 25177; cited from earlier work.
The nature of data set [3]: Lipophilicity determination by RP-HPLC (log of capacity factor k). As to conditions: C18, isocratic methanol 72%/water 28%. Format: physicochemical. As to the method:
Among the important parameters characterizing the physicochemical properties of the compounds, we studied the lipophilicity and electronic relations in the molecule. […] The lipophilicity was determined using RP-HPLC as the logarithm of capacity factor k. The retention times of individual compounds were determined under isocratic conditions, with methanol as an organic modifier in the mobile phase using end-capped non-polar C18 stationary RP columns. In addition, the lipophilicity expressed as log P and Clog P was calculated using two commercially available programs: ACD/Percepta ver.
A chromatographic column Symmetry® C18 5 μm, 4.6 × 250 mm, Part No. W21751W016 (Waters Corp., Milford, MA, USA) was used. The HPLC separation process was monitored by the EZ CHROM Elite® software ver. 3.2.0 (Hitachi High Technologies America). The total flow of the column was 1.0 mL/min, injection 10 μL, column temperature 40 °C, and sample temperature 10 °C. The detection wavelength 214 nm was chosen. A KI methanolic solution was used for the dead time (tD) determination. Retention times (tR) were measured in minutes. […] The capacity factors were calculated according to the formula k = (tR − tD)/tD, where tR is the retention time of the solute and tD is the dead time obtained using an unretained analyte. Each experiment was repeated three times.

Another data set relates to THP1-Blue™ NF-κB cells. The conditions noted are these: read-out: cytotoxicity IC50; human monocytic leukemia cell line THP1-Blue™ NF-κB; cited from earlier work.
Where [4] appears, read: Plasmodium falciparum, 3D7, 48 h.

The term IC50 denotes the concentration that inhibits the measured activity by half.

Each structure is given as a SMILES string. Values joined by “and” are separate entries in the source; they are usually repeats but may differ in a detail not shown here. Equal entries are not always repeated. Where two headings read alike, the source gives them in different places.

In the case of `CCN(CC)CCCC(C)Nc1ccnc2cc(Cl)ccc12` (stereo not shown) [CQ, chloroquine, reference compound], the IC50 in data set [1] (setting [4]) worked out at 0.5 ± 0.2 µM.
For `Cc1cccc(NC(=O)/C=C/c2ccccc2)c1` [Compound 2, (2E)-N-(3-methylphenyl)-3-phenyl-prop-2-enamide], the IC50 came out at 21.6 µM in data set [1] (setting [4]) and 21.9 ± 6.3 µM in data set [1]. For the same compound, the “Mtb MIC” value in data set [2] is 67.4 µM. In data set [3], the log k is given as 0.2729.
In the case of `Cc1ccc(NC(=O)/C=C/c2ccccc2)cc1` [Compound 3], the IC50 in data set [1] (setting [4]) is > 35 µM. Moreover, the “Mtb MIC” value in data set [2] is 134 µM. Moreover, the log k in data set [3] is on record as 0.2640.
As for `O=C(/C=C/c1ccccc1)Nc1cccc(C(F)(F)F)c1` [Compound 6], the IC50 was 11.6 ± 1.13 µM in the data set on THP1-Blue™ NF-κB cells and > 35 µM in data set [1] (setting [4]). Also, the “Mtb MIC” value in data set [2] is 27.5 µM. Also, the log k in data set [3] is recorded as 0.4859.
Consider `Cc1ccc(C)c(NC(=O)/C=C/c2ccccc2)c1` [Compound 7], for which, in data set [1] (setting [4]), the IC50 was > 35 µM. In addition, in data set [2], the “Mtb MIC” value is 254 µM. This compound also showed a log k in data set [3] of 0.2691.
For the compound `O=C(/C=C/c1ccccc1)Nc1ccc(Cl)cc1Cl` [Compound 8], the “antiplasmodial activity in words” value in data set [1] is “inactive”. For the same compound, the IC50 in data set [1] (setting [4]) was > 35 µM. In data set [3], this compound gave a log k of 0.5278.
For the compound `O=C(/C=C/c1ccccc1)Nc1cc(Cl)ccc1Cl` [Compound 9], the IC50 in data set [1] (setting [4]) is > 35 µM. Besides, the “Mtb MIC” value in data set [2] is 876 µM. The same compound displayed a log k in data set [3] of 0.5799.
For the compound `O=C(/C=C/c1ccccc1)Nc1c(Cl)cccc1Cl` [Compound 10], the IC50 in data set [1] (setting [4]) is > 35 µM. Besides, in data set [2], the “Mtb MIC” value was 876 µM. The log k in data set [3] stood at 0.0632.
For the compound `O=C(/C=C/c1ccccc1)Nc1ccc(Cl)c(Cl)c1` [Compound 11], the IC50 was 6.28 ± 2.32 µM in the data set with THP1-Blue™ NF-κB cells and > 35 µM in data set [1] (setting [4]). Also, in data set [2], the “Mtb MIC” value is 27.4 µM. The compound also returned a log k in data set [3] of 0.6821.
Consider `O=C(/C=C/c1ccccc1)Nc1cc(Cl)cc(Cl)c1` [Compound 12], for which the IC50 in the data set with THP1-Blue™ NF-κB cells was 2.43 ± 1.06 µM; in data set [1] (setting [4]), > 35 µM. In addition, the “Mtb MIC” value in data set [2] is 27.4 µM. In data set [3], the log k is 0.8155.
In the case of `O=C(/C=C/c1ccccc1)Nc1ccc(Br)cc1Br` [Compound 13], the “antiplasmodial activity in words” value in data set [1] is “inactive”. Further, the IC50 in data set [1] (setting [4]) is > 35 µM. Also, in data set [2], the “Mtb MIC” value was >339 µM. Besides, the log k in data set [3] turned out to be 0.6152.
Consider `O=C(/C=C/c1ccccc1)Nc1c(Br)cccc1Br` [Compound 14], for which, in data set [1] (setting [4]), the IC50 is > 35 µM. In data set [2], the “Mtb MIC” value is 167 µM. The log k in data set [3] is 0.0992.
`O=C(/C=C/c1ccccc1)Nc1cc(C(F)(F)F)cc(C(F)(F)F)c1` [Compound 15, (2E)-N-[3,5-bis(trifluoromethyl)phenyl]-3-phenylprop-2-enamide]: the values for the IC50 (in the data set with THP1-Blue™ NF-κB cells; in data set [1] (setting [4])) were 2.17 ± 1.19 µM and 6.5 ± 3.6 µM, respectively. Also, the “Mtb MIC” value in data set [2] was 22.3 µM. In data set [3], the log k was found to be 0.9814.
Consider `COc1ccc([N+](=O)[O-])cc1NC(=O)/C=C/c1ccccc1` [Compound 16], for which the IC50 in data set [1] (setting [4]) was > 35 µM. For the same compound, the “Mtb MIC” value in data set [2] is >859 µM. The same compound yielded a log k in data set [3] of 0.1581.
Consider `O=C(/C=C/c1ccccc1)Nc1ccc([N+](=O)[O-])cc1C(F)(F)F` [Compound 17], for which the IC50 in data set [1] (setting [4]) was > 35 µM. Besides, in data set [2], the “Mtb MIC” value was >381 µM. Besides, the log k in data set [3] was 0.3794.
Regarding `O=C(/C=C/c1ccccc1)Nc1ccc([N+](=O)[O-])c(C(F)(F)F)c1` [Compound 18, (2E)-N-[4-nitro-3-(trifluoromethyl)phenyl]-3-phenylprop-2-enamide], the IC50 in data set [1] (setting [4]) came to 2.2 ± 1.9 µM. Further, the “Mtb MIC” value in data set [2] was >381 µM. The log k in data set [3] is 0.5004.
In the case of `O=C(/C=C/c1ccccc1)Nc1cc(Cl)ccc1F` [Compound 19], in data set [1] (setting [4]), the IC50 came to 16 ± 4.2 µM. Further, in data set [2], the “Mtb MIC” value was >465 µM. In addition, the log k in data set [3] is 0.36 and 0.3692.
With `O=C(/C=C/c1ccccc1)Nc1cc(Br)ccc1F` [Compound 20], the IC50 in data set [1] (setting [4]) was > 35 µM. The “Mtb MIC” value in data set [2] was 199 µM. The log k in data set [3] was found to be 0.4875.
In the case of `O=C(/C=C/c1ccccc1)Nc1ccc(Br)c(F)c1` [Compound 21], the IC50 in data set [1] (setting [4]) was 10.3 ± 4.6 µM. Further, in data set [2], the “Mtb MIC” value is >414 µM.
For the compound `O=C(/C=C/c1ccccc1)Nc1ccc(C(F)(F)F)c(F)c1` [Compound 22], the IC50 in data set [1] (setting [4]) worked out at 9.3 ± 5.3 µM. Further, in data set [2], the “Mtb MIC” value was >414 µM. Moreover, the log k in data set [3] amounted to 0.5789.
For `O=C(/C=C/c1ccccc1)Nc1cc(F)ccc1Br` [Compound 23, (2E)-N-(2-bromo-5-fluorophenyl)-3-phenylprop-2-enamide], the IC50 in data set [1] (setting [4]) came to 3.8 ± 0.61 µM. Besides, the “Mtb MIC” value in data set [2] was 199 µM. Further, in data set [3], the log k was found to be 0.4588.
Turning to `O=C(/C=C/c1ccccc1)Nc1ccc(Br)cc1Cl` [Compound 24, (2E)-N-(4-bromo-2-chlorophenyl)-3-phenylprop-2-enamide], the IC50 in data set [1] (setting [4]) was 0.58 ± 0.002 µM. In addition, the “Mtb MIC” value in data set [2] is >766 µM. The same compound showed a log k in data set [3] of 0.6710.
Consider `O=C(/C=C/c1ccccc1)Nc1ccc(Br)c(Cl)c1` [Compound 25], for which the results for the IC50 (in the data set with THP1-Blue™ NF-κB cells; in data set [1] (setting [4])) were 6.5 ± 1 µM and 8.2 ± 4.7 µM, respectively. Also, the “Mtb MIC” value in data set [2] is >383 µM. Further, the log k in data set [3] is listed as 0.6611.
Regarding `O=C(/C=C/c1ccccc1)Nc1ccc(Cl)cc1Br` [Compound 26], the IC50 in data set [1] (setting [4]) was > 35 µM. For the same compound, the “Mtb MIC” value in data set [2] is >383 µM. The log k in data set [3] worked out at 0.5476.
Consider `O=C(/C=C/c1ccccc1)Nc1cc(C(F)(F)F)ccc1Cl` [Compound 27], for which the IC50 in data set [1] (setting [4]) is > 35 µM. In data set [2], the “Mtb MIC” value is 785 µM. Further, in data set [3], the log k worked out at 0.6178.
In the case of `O=C(/C=C/c1ccccc1)Nc1cc(C(F)(F)F)ccc1Br` [Compound 28], the IC50 in data set [1] (setting [4]) was > 35 µM. Moreover, the “Mtb MIC” value in data set [2] is >348 µM. Further, in data set [3], the log k worked out at 0.5561.
As for `O=C(/C=C/c1ccccc1)Nc1ccc(F)cc1C(F)(F)F` [Compound 29], the IC50 in data set [1] (setting [4]) is > 35 µM. For the same compound, in data set [2], the “Mtb MIC” value was >414 µM. The same compound displayed a log k in data set [3] of 0.1607.
As for `O=C(/C=C/c1ccccc1)Nc1ccc(Cl)cc1C(F)(F)F` [Compound 30], in data set [1] (setting [4]), the IC50 was > 35 µM. Further, in data set [2], the “Mtb MIC” value is >394 µM. In data set [3], the log k is on record as 0.4113.
With `O=C(/C=C/c1ccccc1)Nc1ccc(Br)cc1C(F)(F)F` [Compound 31], the half-inhibitory concentration (IC50) in data set [1] (setting [4]) was > 35 µM. Also, the “Mtb MIC” value in data set [2] is >348 µM. Further, in data set [3], the log k was 0.4683.
Regarding `O=C(/C=C/c1ccccc1)Nc1c(F)cc(F)cc1F` [Compound 32, (2E)-3-phenyl-N-(2,4,6-trifluorophenyl)-prop-2-enamide], the concentration for half-maximal inhibition (IC50) in data set [1] (setting [4]) was > 35 µM. Also, the “Mtb MIC” value in data set [2] is >462 µM. Further, in data set [3], the log k is recorded as −0.0831.
Regarding `O=C(/C=C/c1ccccc1)Nc1cc(F)c(F)c(F)c1` [Compound 33], the IC50 in data set [1] (setting [4]) was found to be 4.3 ± 2.4 µM. In addition, the “Mtb MIC” value in data set [2] was >462 µM. Moreover, the log k in data set [3] came to 0.4893.
For the compound `O=C(/C=C/c1ccccc1)Nc1cc(Cl)c(Cl)cc1Cl` [Compound 34], the IC50 in data set [1] (setting [4]) is > 35 µM. Also, the log k in data set [3] is recorded as 0.8373.
As to `O=C(/C=C/c1ccccc1)Nc1cc(Cl)c(Cl)c(Cl)c1` [Compound 35, (2E)-3-phenyl-N-(3,4,5-trichlorophenyl)prop-2-enamide], in data set [1] (setting [4]), the IC50 is 13 ± 3.8 µM. In addition, in data set [2], the “Mtb MIC” value is >395 µM. The log k in data set [3] came to 0.9671.
Regarding `O=C(/C=C/c1ccccc1)Nc1c(Br)cc(C(F)(F)F)cc1Br` [Compound 36, (2E)-N-[2,6-dibromo-4-(trifluoromethyl)-phenyl]-3-phenylprop-2-enamide], the IC50 in data set [1] (setting [4]) was 2 ± 1.9 µM. Also, the “Mtb MIC” value in data set [2] was >287 µM. In addition, the log k in data set [3] was found to be 0.4321.
With `O=C(/C=C/c1ccccc1)Nc1c(Br)cc(F)c(Cl)c1Br` [Compound 37], the IC50 in data set [1] (setting [4]) was > 35 µM. In addition, the “Mtb MIC” value in data set [2] was >298 µM. The compound also came in with a log k in data set [3] of 0.3139.
With `NNC(=O)c1ccncc1` [INH, isoniazid, reference compound], in data set [2], the “Mtb MIC” value is 36.6 µM.

The values are drawn from paper PMC9698057, “Insights into Antimalarial Activity of N-Phenyl-Substituted Cinnamanilides” (Molecules, 2022).
